Target: T1, AMPK4 (Arabidopsis thaliana, UniProt O82514)
T1 sequence (O82514 2-246): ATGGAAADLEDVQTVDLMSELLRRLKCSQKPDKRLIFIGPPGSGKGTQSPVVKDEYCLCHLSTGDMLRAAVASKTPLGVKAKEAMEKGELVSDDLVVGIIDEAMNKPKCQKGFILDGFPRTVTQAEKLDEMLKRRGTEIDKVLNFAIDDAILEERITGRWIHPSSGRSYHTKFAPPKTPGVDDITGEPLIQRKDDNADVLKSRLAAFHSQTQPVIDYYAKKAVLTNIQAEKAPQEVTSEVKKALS
Assay: coupled pyruvate kinase / lactate dehydrogenase assay, […] nm
Type: biochemical
Details: 1 mM AMP, 1 mM ATP

Nc1ncnc2c1ncn2[C@@H]1O[C@H](COP(=O)(O)O)[C@@H](O)[C@H]1O [AMP]
coupled pyruvate kinase / lactate dehydrogenase assay, 340 nm: Analogous data for AMPK4

Reference: paper doi:10.1101/2022.02.24.481826v2 (biorxiv, 2022)
